How the values were obtained:
Format in all cases: cell-based
[1] = tested on: Aspergillus niger ATCC 9642, Aspergillus flavus ATCC 9643, and Chaetomium globosum ATCC 6205; experiment: ASTM D 2020 fungal resistance test of five biocides on treated glass fiber filter paper (Example 1); details: for Observed Fungal Growth after 14 Days incubation at 28° C., 1: replicate 1; for Observed Fungal Growth after 14 Days incubation at 28° C., 2: replicate 2; for Observed Fungal Growth after 14 Days incubation at 28° C., 3: replicate 3
Description: Five different biocides at varying concentrations were tested for fungal resistance using the ASTM D 2020 Standard Test Method for Mildew (Fungus) Resistance of Paper and Paperboard protocol. This test method was designed for the qualitative determination of mildew (fungus) resistance of paper and paperboard, particularly those types that have been given a fungus resistant treatment. Specific test conditions applied to this project are described below, but at all times the ASTM D 2020 test protocol was strictly followed.
All five biocides (Santoquin®, HMTBA-Cu, BIOX-AUSD, Tox-Guard*Dry, and Metasol-TK 100) were tested at three different concentrations (200, 400, and 600 ppm). Santoquin®, HMTBA-Cu, and BIOX-AUSD were diluted in dimethyl sulfoxide (DMSO), while Tox-Guard*Dry and Metasol-TK100 were diluted in water. DMSO was used a control diluent. The fungal inoculum was comprised of three different species: Aspergillus niger ATCC 9642, Aspergillus flavus ATCC 9643, and Chaetomium globosum ATCC 6205.
Glass fiber filter paper was treated with the individual test biocides at the respective concentrations listed in Table 1 and allowed to dry overnight. The filter paper carriers, tested in triplicate, were placed in Petri dishes on mineral salts agar and inoculated with the fungal inoculum. The samples were incubated at 28° C. for 2 weeks and examined daily during the first week of incubation for the growth of the test organisms.
(§1) If no growth was observed on a sample after the first week of incubation, the sample was incubated for an additional seven days. […] If, after two weeks, there was no detectable growth of test organisms, the sample was considered fungus resistant.

[2] = tested on: Aspergillus niger ATCC 9642 and Aspergillus flavus ATCC 9643; experiment: In vitro disk assay of antifungal properties, agar plates containing test agent (Example 3); details: 48 hours at 25° C.
Description: In this assay, paper disks were soaked in a fungal solution and placed on the surface of agar plates containing different concentration of the test agent. The radius of fungal growth radiating from each disk was considered indicative of the degree of inhibition by the agent relative to a control.
The test agents were diluted in DMSO or water and tested at several different concentrations. The test agents were added to the agar solution after sterilization, but prior to solidification. […] The plates were incubated for 48 hours at 25° C. The zones of fungal growth (or no growth) were analyzed and the minimum total inhibitory concentration (%) was estimated for each agent.

[3] = tested on: Aspergillus niger ATCC 9642, Aspergillus flavus ATCC 9643, and Chaetomium globosum ATCC 6205; experiment: ASTM D 2020 fungal resistance test of Santoquin with Kathon 893 as control biocide (Example 2); details: for Observed Fungal Growth after 14 Days incubation at 28° C.: replicates 1-3
Description: One biocide sample, labeled Santoquin® was tested for fungal resistance using the ASTM D 2020 Standard Test Method for Mildew (Fungus) Resistance of Paper and Paperboard protocol. This test method was designed for the qualitative determination of mildew (fungus) resistance of paper and paperboard, particularly those types that have been given a fungus resistant treatment. Specific test conditions applied to this project are described below, but at all times the ASTM D 2020 test protocol was strictly followed.
The Santoquin® biocide was diluted with DMSO and tested at two different concentrations: 0.1% and 1.0%. The biocide Kathon 893 was diluted to 0.1% and 1.0% in water and used as a control biocide. DMSO was used as a control diluent. The fungal inoculum was comprised of three different species: Aspergillus niger ATCC 9642, Aspergillus flavus ATCC 9643, and Chaetomium globosum ATCC 6205.
Glass fiber filter paper was treated with two different concentrations (0.1% and 1.0%) of Santoquin® and allowed to dry overnight. The filter paper carriers, tested in triplicate, were placed in Petri dishes on mineral salts agar and inoculated with the fungal inoculum. The samples were incubated at 28° C. for 2 weeks and examined daily during the first week of incubation for the growth of the test organisms.
as §1

[4] = all three concentrations (200, 400, and 600 ppm)
[5] = both concentrations (0.1% and 1.0%)

Row | SMILES | Observed Fungal Growth after 14 Days incubation at 28° C., 1 ([1]; 200 ppm) | Observed Fungal Growth after 14 Days incubation at 28° C., 2 ([1]; 200 ppm) | Observed Fungal Growth after 14 Days incubation at 28° C., 3 ([1]; 200 ppm) | Observed Fungal Growth after 14 Days incubation at 28° C., 1 ([1]; 400 ppm) | Observed Fungal Growth after 14 Days incubation at 28° C., 2 ([1]; 400 ppm) | Observed Fungal Growth after 14 Days incubation at 28° C., 3 ([1]; 400 ppm) | Observed Fungal Growth after 14 Days incubation at 28° C., 1 ([1]; 600 ppm) | Observed Fungal Growth after 14 Days incubation at 28° C., 2 ([1]; 600 ppm) | Observed Fungal Growth after 14 Days incubation at 28° C., 3 ([1]; 600 ppm) | fungal growth at the end of the two weeks [1, 4] | fungal resistance classification in the ASTM D 2020 test [1, 4] | Minimum Total Inhibitory Concentration (%) [2] [%] | fungal growth at the end of two weeks ([1]; 200 ppm) | fungal resistance classification in the ASTM D 2020 test ([1]; 200 ppm) | fungal growth at the end of two weeks ([1]; 400 and 600 ppm) | fungal resistance classification in the ASTM D 2020 test ([1]; 400 and 600 ppm) | Observed Fungal Growth after 14 Days incubation at 28° C. ([3]; 0.1%) | Observed Fungal Growth after 14 Days incubation at 28° C. ([3]; 1.0%) | fungal growth at the end of the two weeks [3, 5] | fungal resistance classification in the ASTM D 2020 test [3, 5]
1 | CSCCC(O)C(=O)[O-].CSCCC(O)C(=O)[O-].[Cu+2] (stereo not drawn) [Mintrex Cu, Cu(HMTBA)2] | Growth | Growth | Growth | Growth | Growth | Growth | Growth | Growth | Growth | fungal growth | fungus non-resistant | 0.5 | – | – | – | – | – | – | – | –
2 | CCOc1ccc2c(c1)C(C)=CC(C)(C)N2 [Santoquin, 6-ethoxy-1,2-dihydro-2,2,4-trimethylquinoline] | Growth | Growth | Growth | No Growth | No Growth | No Growth | No Growth | No Growth | No Growth | – | – | >0.5 | fungal growth | fungus non-resistant | no fungal growth | fungal resistant | No growth | No growth | no fungal growth | fungal resistant

Source: patent US20070089847A1, “Anti-microbial paper products having a substituted 1,2-dihydroquinoline” (Novus International, Inc., priority 2005, published 2007)
